Like-named read-outs stand apart in the source and are kept apart here.
Assays:
mammary tumor [1] = conditions: cited from earlier work
liver = conditions: result in words; cited from earlier work
CYP1A1 [2] = conditions: result in words; cited from earlier work
ER = conditions: 21 to 25 day-old female Sprague-Dawley rat uterus; cited from earlier work
[3] = in vivo; cited from earlier work
[4] = system: 17β-estradiol (E2)-induced responses; conditions: rats, mice; cited from earlier work
PR = conditions: 21 to 25 day-old female Sprague-Dawley rat uterus; cited from earlier work
CYP1A1 [5] = conditions: cited from earlier work; for ED50 for induction of hepatic CYP1A1-dependent activity: 6-i-propyl value estimated
[6] = system: MCF-7 human breast cancer cell lines; conditions: MCF-7 cells in culture; cited from earlier work
mammary tumor [7] = conditions: rodent models; cited from earlier work
rat uterus = conditions: immature female rat uterus; result in words; cited from earlier work
femurs = test: Bone effects in ovariectomized rats (femur weight and length); format: in vivo, Sprague-Dawley rat; conditions: tamoxifen 0.4, 6-MCDF 0.8 mg/kg/day oral, 20 days
Description: The ovariectomized rat is used as a model for osteoporosis.
Rats were euthanized on day 21. After uteri were excised and processed, both left and right femurs were excised and the length measured with calipers. […] Wet weight was measured after residual connective tissue was stripped away. Dry weight was measured after the bones were dried for 12 ours at 130° C.

[8] = Body and organ weights in DMBA-treated rats
Description: (§1) Female virgin Sprague-Dawley rats were obtained from Harlan (Houston) and were allowed to acclimate for 10 days, allowed access to food and water ad libitum, and maintained on a 12 h light/dark schedule. Mammary tumors were induced in 50±3 day old-rats by administering a single gavage dose of 20 mg DMBA in 0.5 ml corn oil. […] Tumor sizes were measured with calipers, and volumes were calculated by formula (length×width×depth)/6π and are expressed as percent control. One week after their last injection, rats were euthanized by asphyxiation. All tumors were removed, weighed, and sectioned. One portion was frozen in liquid nitrogen for PCR analysis; one portion was placed in 10% formalin for histopathological analysis; and the majority was immediately homogenized for the preparation of microsomal and cytosolic fractions. Livers were perfused and weighed, and cytosol and microsomes were prepared as previously described.

uterine peroxidase [9] = test: Uterine peroxidase assay in ovariectomized rats (Example 4); format: in vivo, Sprague-Dawley rat; conditions: 0.4 mg/kg/day each oral, 20 days
Description: (§2) Rats were euthanized on day 21.

uterine cytosolic PR = test: Uterine cytosolic PR levels in ovariectomized rats (Example 4); format: in vivo, Sprague-Dawley rat; conditions: 0.4 mg/kg/day each oral, 20 days
Description: as §2

uterus [10] = test: Uterine wet weight in ovariectomized rats (Example 4); format: in vivo, Sprague-Dawley rat; conditions: 0.4 mg/kg/day each oral, 20 days
Description: (§3) Methods: Rats were ovariectomized at 97 days of age, and treatments began at 117 days of age. […] Rats were euthanized on day 21.

uterus [11] = conditions: cited from earlier work
uterus [12] = test: Uterine wet weight in ovariectomized rats (Example 6, Table 6); format: in vivo, Sprague-Dawley rat; conditions: tamoxifen 0.4, 6-MCDF 0.8 mg/kg/day oral, 20 days
Description: as §2

uterine peroxidase [13] = test: Uterine peroxidase activity in ovariectomized rats (Example 6, Table 6); format: in vivo, Sprague-Dawley rat; conditions: tamoxifen 0.4, 6-MCDF 0.8 mg/kg/day oral, 20 days
Description: as §2

[14] = system: uterine progesterone receptor; test: Uterine progesterone receptor in ovariectomized rats (Example 6, Table 6); format: in vivo, Sprague-Dawley rat; conditions: tamoxifen 0.4, 6-MCDF 0.8 mg/kg/day oral, 20 days
Description: as §2

mammary tumors = test: DMBA-induced rat mammary tumor model, tumor volume and weight; format: in vivo, Sprague-Dawley rat; conditions: 20 days
Description: as §1, with “One week after their last injection, rats were euthanized by asphyxiation.” left out

[15] = Body and organ weights (Example 6, Table 7)
Description: For Table 7 and FIGS. 3 and 3B, exact aged virgin female Sprague-Dawley rats were dosed on day 55 in the afternoon with 20 mg/rat 7,12-dimethylbenz[a]anthacene in a volume of 0.5 ml/rat corn oil (rats weigh approximately 165 g, resulting in 120 mg/kg DMBA and 3 ml/kg corn oil).

[16] = Body and organ weights (Examples 4 and 5)
Description: as §3
For the control vehicle and the MCDF vehicle ethanol was added (5% v/v) and then evaporated away.

endometrial tumor = conditions: cited from earlier work
bone tissue = conditions: cited from earlier work
[17] = each drug 0.4 mg/kg/day by gavage, DMBA rats

SMILES: Cc1cc(Cl)c2oc3cc(Cl)cc(Cl)c3c2c1 [8-MCDF, 8-methyl-1,3,6-trichlorodibenzofuran]
- growth inhibition (mammary tumor [1]; 5 mg/kg/wk): > 50%
- mammary tumor growth (mammary tumor [1]; 5, 10 or 25 mg/kg/wk, result in words): significantly inhibited
- liver morphology (liver): not accompanied by any significant changes
- liver/body weight ratios (liver): not accompanied by any significant changes
- induction of hepatic CYP1A1-dependent activity (CYP1A1 [2]): not accompanied by any significant changes

SMILES: Clc1cc(Cl)c2c(c1)oc1c(C3CCCCC3)cc(Cl)cc12 [6-CHDF, 6-cyclohexyl-1,3,8-triCDF]
- antitumorigenic activity (mammary tumor [1]; 5 mg/kg/wk, result in words): inactive

SMILES: Clc1cc2c(cc1Cl)Oc1cc(Cl)c(Cl)cc1O2 [TCDD, 2,3,7,8-tetrachlorodibenzo-p-dioxin, reference compound]
- nuclear and cytosolic ER binding (ER): dose-dependent decrease
- hepatocarcinogenicity [3]: too hepatocarcinogenic
- antiestrogenic activity [4]: effective antiestrogen
- nuclear and cytosolic progesterone receptor (PR) binding (PR): dose-dependent decrease
- induction of CYP1A1 (CYP1A1 [5]; result in words): induces toxic and biochemical responses
- antiestrogenic activity [6]: effective antiestrogen
- mammary tumor growth (mammary tumor [7]): inhibit mammary tumor growth

SMILES: Cc1cc2c(cc1Cl)oc1c(Cl)c(Cl)c(Cl)cc12 [8-methyl-2,3,4,7-tetraCDF]
- ED50 for induction of hepatic CYP1A1-dependent activity (CYP1A1 [5]; rat): 5.31 mmol/kg
- ED50 values for antiestrogenicity (rat uterus): similar

SMILES: Cc1cc(Cl)cc2c1oc1c(Cl)c(Cl)c(Cl)cc12 [6-methyl-2,3,4,8-tetraCDF, 6-methyl-2,3,4,8-tetrachlorodibenzofuran]
- ED50 for induction of hepatic CYP1A1-dependent activity (CYP1A1 [5]; rat): 8.52 mmol/kg
- ED50 values for antiestrogenicity (rat uterus): similar

SMILES: CC(C)c1cc(Cl)cc2c1oc1cc(Cl)cc(Cl)c12 [6-i-propyl-1,3,8-triCDF]
- ED50 (CYP1A1 induction)/ED50 (antiestrogenicity) ratio (CYP1A1 [5]; rat, high ratio indicates low toxicity and high antiestrogenic potency): 13,990-17,100
- ED50 values for antiestrogenicity (rat uterus): similar

SMILES: CC/C(=C(\c1ccccc1)c1ccc(OCCN(C)C)cc1)c1ccccc1 [tamoxifen, reference compound]
- Dry bone weight (femurs; control 0.180 ± 0.005): 0.216 ± 0.005 % body weight
- Wet bone weight (femurs; control 0.347 ± 0.009): 0.403 ± 0.007 % body weight
- Uterine Wt. ([8]; 0.4 mg/kg/day each, 20 days, control 0.212 ± 0.017): 0.142 ± 0.006 % BW
- Spleen Wt. ([8]; 0.4 mg/kg/day each, 20 days, control 0.257 ± .022): 0.236 ± 0.019 % BW
- Kidney weight ([8]; 0.4 mg/kg/day each, 20 days, control 0.349 ± 0.007): 0.386 ± 0.012 % BW
- Liver weight ([8]; 0.4 mg/kg/day each, 20 days, control 3.13 ± 0.12): 3.64 ± 0.18 % BW
- Final Body Weight ([8]; 0.4 mg/kg/day each, 20 days, control 250 ± 5): 243 ± 4 g
- Heart weight ([8]; rat, in vivo): 0.420 ± 0.018 % BW
- Uterine Peroxidase Assay (Abs/g uterus) (uterine peroxidase [9]; per g uterus): 17.7 ± 0.45 Fold Increase over Control
- Uterine Peroxidase Assay (Abs/mg protein) (uterine peroxidase [9]; per mg protein): 17.5 ± 0.60 Fold Increase over Control
- Uterine Peroxidase Assay (Abs/uterus) (uterine peroxidase [9]; per uterus): 28.41 ± 0.73 Fold Increase over Control
- Uterine cytosolic PR levels (fmol/mg protein) (uterine cytosolic PR; control 308 ± 142): 674 ± 52 fmol/mg protein
- Uterine cytosolic PR levels (fmol/uterus) (uterine cytosolic PR; control 1100 ± 508): 4501 ± 350 fmol/uterus
- Uterine cytosolic PR levels (fmol/g uterus) (uterine cytosolic PR; control 8368 ± 3868): 21301 ± 1655 fmol/g uterus
- Uterine Wet Weight (% body wt) (uterus [10]; control 0.045 ± 0.002): 0.085 ± 0.004 % body wt
- Uterine Wet Weight (uterus [10]; control 0.131 ± 0.006): 0.211 ± 0.011 g
- uterine hyperplasia (uterus [11]; most animal models): induced uterine hyperplasia
- rat uterine wet weight (uterus [11]; rat, result in words): significant dose dependent increases
- Uterine wet weight (% body weight) (uterus [12]; control 0.0583 ± 0.0055): 0.0857 ± 0.0036 % body weight
- Uterine wet weight (uterus [12]; control 0.171 ± 0.15): 0.208 ± 0.009 g
- Uterine Peroxidase Activity (Absorbance/g uterus) (uterine peroxidase [13]; per g uterus): 31.94 ± 0.26 Fold Increase over control
- Uterine Peroxidase Activity (Absorbance/mg protein) (uterine peroxidase [13]; per mg protein): 26.76 ± 0.22 Fold Increase over control
- Uterine Peroxidase Activity (Absorbance/uterus) (uterine peroxidase [13]; per uterus): 38.66 ± 0.32 Fold Increase over control
- Uterine Progesterone Receptor (fmol/mg protein) ([14]; control 198 ± 15): 790 ± 21 fmol/mg protein
- Uterine Progesterone Receptor (fmol/uterus) ([14]; control 765 ± 69): 9062 ± 244 fmol/uterus
- Uterine Progesterone Receptor (fmol/g uterus) ([14]; control 4462 ± 343): 43666 ± 1175 fmol/g uterus
- Tumor Wt (% Control) (mammary tumors; 0.4 mg/kg/day each, control 100 ± 27.7): 61.5 ± 30.4 % Control
- Final Tumor Volume (% Control) (mammary tumors; 0.4 mg/kg/day each, control 100 ± 31.5): 41.5 ± 20 % Control
- Final Tumor Volume (mammary tumors; 0.4 mg/kg/day each, control 2734 ± 956): 1135 ± 587 mm^3
- % Inhibition tumor volume (mammary tumors; [17]): 58.5%
- % Inhibition tumor weight (mammary tumors; [17]): NS decrease
- Rat weight at start of treatments ([15]; Table 7, baseline, control 255 ± 3): 261 ± 9 g
- Spleen weight (% body weight) ([15]; Table 7, control 0.289 ± 0.018): 0.254 ± 0.018 % body weight
- Kidney weight (% body weight) ([15]; Table 7, control 0.334 ± 0.010): 0.369 ± 0.017 % body weight
- Heart weight (% body weight) ([15]; Table 7, control 0.360 ± 0.010): 0.357 ± 0.023 % body weight
- Rat weight prior to euthanasia ([15]; Table 7, control 295 ± 11): 242 ± 6 g
- Rat weight at start of treatments ([16]; Table 5, baseline, control 273.1 ± 8.1): 275.7 ± 7.6 g
- Spleen wet weight (% body wt) ([16]; Table 5, control 0.247 ± 0.007): 0.252 ± .008 % body wt
- kidney weight (% body wt) ([16]; Table 5, control 0.318 ± 0.010): 0.334 ± 0.008 % body wt
- Heart weight (% body wt) ([16]; Table 5, control 0.319 ± 0.006): 0.346 ± 0.005 % body wt
- Spleen wet weight ([16]; Table 5, control 0.72O ± 0.012): 0.631 ± 0.037 g
- Kidney weight ([16]; Table 5, control 0.933 ± 0.038): 0.837 ± 0.045 g
- Heart weight ([16]; Table 5, control 0.935 ± 0.039): 0.864 ± 0.031 g
- Liver weight (% body wt) ([16]; Table 5, control 4.06 ± 0.23): 4.26 ± 0.26 % body wt
- Liver weight ([16]; Table 5, control 11.88 ± 0.78): 10.70 ± 0.92 g
- Rat weight prior to euthanasia ([16]; Table 5, control 293.2 ± 10.9): 249.8 ± 7.6 g
- risk for endometrial tumor formation (endometrial tumor; 2843 patients, 20 mg/day (Fisher et al. 1994)): 7.5 fold
- risk for endometrial tumors (endometrial tumor; Danish trial, 30 mg/day for one year): 3.3 fold
- risk for endometrial tumors (endometrial tumor; Scottish and Manchester England trials, 20 mg/day): no increased risk
- risk for endometrial tumors (endometrial tumor; South-Swedish trial, 30 mg/day for one year): 2.0 fold
- risk for endometrial tumors (endometrial tumor; Stockholm trial, 40 mg/day for 2 years): approximately 6 fold
- risk/incidence of endometrial cancer (endometrial tumor; women, breast cancer treatment, result in words): Risk of endometrial cancer increases
- effect in bone (bone tissue; cycling rats (Takahashi et al. 1996)): no effect
- effect in bone tissue (bone tissue; ovariectomized rats (Turner et al. 1987)): acted as an estrogen agonist

Source: patent US6136845A (The Texas A&M University System, priority 1998, dated 2000)
